Source: patent US20230141101A1, “PDE4 INHIBITOR COMPOUND AND MEDICAL USE THEREOF” (Suzhou Longbotai Pharmaceuticals Co., Ltd., priority 2020, published 2023)

Assays:
Type in all cases: biochemical
Details in all cases: 20 nM
PDE4A1A = target: T1, PDE4A1A (Homo sapiens, UniProt P27815); assay: PDE4 inhibitory activity assay (FAM-cAMP enzymatic reaction), PDE4A1A
T1 construct: purchased BPS 60040
In short: (§1)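 Human PDE4A1A, PDE4B1 or PDE4D2 preincubated with compound 15 min at room temperature, then FAM-cAMP substrate added; reaction 30 min at room temperature before stop solution and further 60 min. Fluorescence read on multilabel counter; IC50 fitted from inhibition rates.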

PDE4B1 = target: T2, PDE4B1 (Homo sapiens, UniProt Q07343); assay: PDE4 inhibitory activity assay (FAM-cAMP enzymatic reaction), PDE4B1
T2 construct: purchased BPS 60041
T2 sequence (Q07343 whole entry): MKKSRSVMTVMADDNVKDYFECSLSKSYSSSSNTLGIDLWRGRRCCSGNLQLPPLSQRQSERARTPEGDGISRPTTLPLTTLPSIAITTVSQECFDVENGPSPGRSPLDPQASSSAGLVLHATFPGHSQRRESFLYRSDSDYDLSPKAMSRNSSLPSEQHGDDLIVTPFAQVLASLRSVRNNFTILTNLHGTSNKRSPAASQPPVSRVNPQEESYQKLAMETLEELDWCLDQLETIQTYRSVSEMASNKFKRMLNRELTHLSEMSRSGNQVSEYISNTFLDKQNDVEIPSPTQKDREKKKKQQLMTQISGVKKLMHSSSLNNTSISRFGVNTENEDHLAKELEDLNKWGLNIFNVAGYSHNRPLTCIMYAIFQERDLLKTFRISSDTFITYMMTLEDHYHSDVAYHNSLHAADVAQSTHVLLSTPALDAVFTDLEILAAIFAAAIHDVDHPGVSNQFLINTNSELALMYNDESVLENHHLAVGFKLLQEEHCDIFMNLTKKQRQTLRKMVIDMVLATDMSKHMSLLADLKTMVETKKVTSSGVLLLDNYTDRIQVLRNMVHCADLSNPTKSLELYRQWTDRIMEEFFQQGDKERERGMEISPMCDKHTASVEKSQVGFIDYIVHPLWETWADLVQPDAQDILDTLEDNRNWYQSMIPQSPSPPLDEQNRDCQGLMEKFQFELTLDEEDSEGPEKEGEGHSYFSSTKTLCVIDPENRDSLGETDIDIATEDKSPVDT
In short: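 Each isoform is incubated with test compound for 15 min at room temperature before FAM-cAMP substrate starts a 30-min reaction.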

PDE4D2 = PDE4D2 (Homo sapiens, UniProt Q08499); assay: PDE4 inhibitory activity assay (FAM-cAMP enzymatic reaction), PDE4D2
Chain of PDE4D2 (Q08499 303-809): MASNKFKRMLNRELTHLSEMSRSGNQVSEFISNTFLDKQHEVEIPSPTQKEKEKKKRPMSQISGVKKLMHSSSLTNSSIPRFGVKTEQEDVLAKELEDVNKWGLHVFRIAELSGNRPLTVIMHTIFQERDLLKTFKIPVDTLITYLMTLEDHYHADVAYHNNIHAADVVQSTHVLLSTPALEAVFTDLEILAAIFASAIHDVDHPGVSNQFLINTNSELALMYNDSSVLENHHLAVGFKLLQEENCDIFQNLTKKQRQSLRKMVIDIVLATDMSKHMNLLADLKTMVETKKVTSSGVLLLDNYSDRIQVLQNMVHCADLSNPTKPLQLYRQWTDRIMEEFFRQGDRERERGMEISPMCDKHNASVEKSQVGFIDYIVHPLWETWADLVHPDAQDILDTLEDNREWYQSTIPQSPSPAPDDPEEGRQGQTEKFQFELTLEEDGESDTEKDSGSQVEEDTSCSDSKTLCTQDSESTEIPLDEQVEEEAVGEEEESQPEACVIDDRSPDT
In short: as §1

T1 sequence (P27815 1-647 isoform P27815-4): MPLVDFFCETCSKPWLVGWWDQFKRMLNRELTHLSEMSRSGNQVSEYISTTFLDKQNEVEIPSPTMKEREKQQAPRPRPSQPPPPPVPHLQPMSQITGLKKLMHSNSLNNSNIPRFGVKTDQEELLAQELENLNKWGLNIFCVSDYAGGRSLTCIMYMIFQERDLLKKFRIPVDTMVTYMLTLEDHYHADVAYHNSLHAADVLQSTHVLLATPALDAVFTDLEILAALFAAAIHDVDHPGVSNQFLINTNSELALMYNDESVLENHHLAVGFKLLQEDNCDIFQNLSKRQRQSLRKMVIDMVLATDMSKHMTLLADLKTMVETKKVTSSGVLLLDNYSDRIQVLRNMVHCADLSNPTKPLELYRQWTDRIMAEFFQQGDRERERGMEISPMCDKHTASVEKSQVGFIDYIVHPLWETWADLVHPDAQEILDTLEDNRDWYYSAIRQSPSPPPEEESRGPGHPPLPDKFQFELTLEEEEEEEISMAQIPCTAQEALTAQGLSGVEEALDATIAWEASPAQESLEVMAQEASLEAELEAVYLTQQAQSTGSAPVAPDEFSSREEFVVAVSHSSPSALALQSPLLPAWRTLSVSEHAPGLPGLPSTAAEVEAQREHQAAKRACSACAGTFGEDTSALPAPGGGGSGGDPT

CCOc1nc([C@@H](CS(C)(=O)=O)n2c(=O)[nH]c3c(C)c(-c4ccccc4C)cnc32)ccc1OC(F)F [Ex. 64, (S)-3-(1-(5-(difluoromethoxy)-6-ethoxypyridin-2-yl)-2-(methylsulfonyl)ethyl)-7-methyl-6-(o-methylphenyl)-1H-imidazo[4,5-b]pyridin-2(3H)-one]
+: PDE4 A1 inhibitory effect at 20 nM (PDE4A1A) | PDE4 B1 inhibitory effect at 20 nM (PDE4B1) | PDE4 D2 inhibitory effect at 20 nM (PDE4D2)

CCOc1nc([C@@H](CS(C)(=O)=O)n2c(=O)n(C)c3c(C)c(-c4ccccc4F)cnc32)ccc1OC(F)F [Ex. 65, (S)-3-(1-(5-(difluoromethoxy)-6-ethoxypyridin-2-yl)-2-(methylsulfonyl)ethyl)-6-(2-fluorophenyl)-1,7-dimethyl-1H-imidazo[4,5-b]pyridin-2(3H)-one]
+: PDE4 A1 inhibitory effect at 20 nM (PDE4A1A) | PDE4 B1 inhibitory effect at 20 nM (PDE4B1) | PDE4 D2 inhibitory effect at 20 nM (PDE4D2)

CCOc1nc([C@@H](CS(C)(=O)=O)n2c(=O)n(C)c3c(C)c(-c4ccccc4)cnc32)ccc1OC(F)F [Ex. 66, (S)-3-(1-(5-(difluoromethoxy)-6-ethoxypyridin-2-yl)-2-(methylsulfonyl)ethyl)-1,7-dimethyl-6-phenyl-1H-imidazo[4,5-b]pyridin-2(3H)-one]
+: PDE4 A1 inhibitory effect at 20 nM (PDE4A1A) | PDE4 B1 inhibitory effect at 20 nM (PDE4B1) | PDE4 D2 inhibitory effect at 20 nM (PDE4D2)

CCOc1nc([C@@H](CS(C)(=O)=O)n2c(=O)n(C)c3c(C)c(-c4ccc(F)cc4)cnc32)ccc1OC(F)F [Ex. 67, (S)-3-(1-(5-(difluoromethoxy)-6-ethoxypyridin-2-yl)-2-(methylsulfonyl)ethyl)-6-(4-fluorophenyl)-1,7-dimethyl-1H-imidazo[4,5-b]pyridin-2(3H)-one]
+: PDE4 A1 inhibitory effect at 20 nM (PDE4A1A) | PDE4 B1 inhibitory effect at 20 nM (PDE4B1) | PDE4 D2 inhibitory effect at 20 nM (PDE4D2)

CCOc1nc([C@@H](CS(C)(=O)=O)n2c(=O)n(C)c3c(C)c(-c4ccccc4C)cnc32)ccc1OC(F)F [Ex. 68, (S)-3-(1-(5-(difluoromethoxy)-6-ethoxypyridin-2-yl)-2-(methylsulfonyl)ethyl)-1,7-dimethyl-6-(o-methylphenyl)-1H-imidazo[4,5-b]pyridin-2(3H)-one]
+: PDE4 A1 inhibitory effect at 20 nM (PDE4A1A) | PDE4 B1 inhibitory effect at 20 nM (PDE4B1) | PDE4 D2 inhibitory effect at 20 nM (PDE4D2)

CCOc1nc([C@@H](CS(C)(=O)=O)n2c(=O)n(CC(F)F)c3c(C)c(-c4ccccc4F)cnc32)ccc1OC(C)C [Ex. 69, (S)-1-(2,2-difluoroethyl)-3-(1-(6-ethoxy-5-isopropoxypyridin-2-yl)-2-(methylsulfonyl)ethyl)-6-(2-fluorophenyl)-7-methyl-1H-imidazo[4,5-b]pyridin-2(3H)-one]
+: PDE4 A1 inhibitory effect at 20 nM (PDE4A1A) | PDE4 B1 inhibitory effect at 20 nM (PDE4B1) | PDE4 D2 inhibitory effect at 20 nM (PDE4D2)

CCOc1nc([C@@H](CS(C)(=O)=O)n2c(=O)n(CC(F)F)c3c(C)c(-c4ccccc4)cnc32)ccc1OC(C)C [Ex. 70, (S)-1-(2,2-difluoroethyl)-3-(1-(6-ethoxy-5-isopropoxypyridin-2-yl)-2-(methylsulfonyl)ethyl)-7-methyl-6-phenyl-1H-imidazo[4,5-b]pyridin-2(3H)-one]
+: PDE4 A1 inhibitory effect at 20 nM (PDE4A1A) | PDE4 B1 inhibitory effect at 20 nM (PDE4B1) | PDE4 D2 inhibitory effect at 20 nM (PDE4D2)

CCOc1nc([C@@H](CS(C)(=O)=O)n2c(=O)n(CC(F)F)c3c(C)c(-c4ccc(F)cc4)cnc32)ccc1OC(C)C [Ex. 71, (S)-1-(2,2-difluoroethyl)-3-(1-(6-ethoxy-5-isopropoxypyridin-2-yl)-2-(methylsulfonyl)ethyl)-6-(4-fluorophenyl)-7-methyl-1H-imidazo[4,5-b]pyridin-2(3H)-one]
+: PDE4 A1 inhibitory effect at 20 nM (PDE4A1A) | PDE4 B1 inhibitory effect at 20 nM (PDE4B1) | PDE4 D2 inhibitory effect at 20 nM (PDE4D2)

CCOc1nc([C@@H](CS(C)(=O)=O)n2c(=O)n(CC(F)F)c3c(C)c(-c4ccccc4C)cnc32)ccc1OC(C)C [Ex. 72, (S)-1-(2,2-difluoroethyl)-3-(1-(6-ethoxy-5-isopropoxypyridin-2-yl)-2-(methylsulfonyl)ethyl)-7-methyl-6-(o-methylphenyl)-1H-imidazo[4,5-b]pyridin-2(3H)-one]
+: PDE4 A1 inhibitory effect at 20 nM (PDE4A1A) | PDE4 B1 inhibitory effect at 20 nM (PDE4B1) | PDE4 D2 inhibitory effect at 20 nM (PDE4D2)

CCOc1nc([C@@H](CS(C)(=O)=O)n2c(=O)[nH]c3c(C)c(Br)cnc32)ccc1OC [Ex. 73, (S)-3-(1-(6-ethoxy-5-methoxypyridin-2-yl)-2-(methylsulfonyl)ethyl)-6-bromo-7-methyl-1H-imidazo[4,5-b]pyridin-2(3H)-one]
+: PDE4 A1 inhibitory effect at 20 nM (PDE4A1A) | PDE4 B1 inhibitory effect at 20 nM (PDE4B1) | PDE4 D2 inhibitory effect at 20 nM (PDE4D2)

CCOc1nc([C@@H](CS(C)(=O)=O)n2c(=O)[nH]c3cc(-c4ccccc4F)cnc32)ccc1OC [Ex. 74, (S)-3-(1-(6-ethoxy-5-methoxypyridin-2-yl)-2-(methylsulfonyl)ethyl)-6-(2-fluorophenyl)-1H-imidazo[4,5-b]pyridin-2(3H)-one]
+: PDE4 A1 inhibitory effect at 20 nM (PDE4A1A) | PDE4 B1 inhibitory effect at 20 nM (PDE4B1) | PDE4 D2 inhibitory effect at 20 nM (PDE4D2)

CCOc1nc([C@@H](CS(C)(=O)=O)n2c(=O)[nH]c3cc(-c4ccccc4)cnc32)ccc1OC [Ex. 76, (S)-3-(1-(6-ethoxy-5-methoxypyridin-2-yl)-2-(methylsulfonyl)ethyl)-6-phenyl-1H-imidazo[4,5-b]pyridin-2(3H)-one]
+: PDE4 A1 inhibitory effect at 20 nM (PDE4A1A) | PDE4 B1 inhibitory effect at 20 nM (PDE4B1) | PDE4 D2 inhibitory effect at 20 nM (PDE4D2)

CCOc1nc([C@@H](CS(C)(=O)=O)n2c(=O)n(C)c3cc(-c4ccccc4)cnc32)ccc1OC [Ex. 77, (S)-3-(1-(6-ethoxy-5-methoxypyridin-2-yl)-2-(methylsulfonyl)ethyl)-6-phenyl-1-methyl-1H-imidazo[4,5-b]pyridin-2(3H)-one]
+: PDE4 A1 inhibitory effect at 20 nM (PDE4A1A) | PDE4 B1 inhibitory effect at 20 nM (PDE4B1) | PDE4 D2 inhibitory effect at 20 nM (PDE4D2)

CCOc1nc([C@@H](CS(C)(=O)=O)n2c(=O)[nH]c3cc(-c4ccc(F)cc4)cnc32)ccc1OC [Ex. 78, (S)-3-(1-(6-ethoxy-5-methoxypyridin-2-yl)-2-(methylsulfonyl)ethyl)-6-(4-fluorophenyl)-1H-imidazo[4,5-b]pyridin-2(3H)-one]
+: PDE4 A1 inhibitory effect at 20 nM (PDE4A1A) | PDE4 B1 inhibitory effect at 20 nM (PDE4B1) | PDE4 D2 inhibitory effect at 20 nM (PDE4D2)

CCOc1nc([C@@H](CS(C)(=O)=O)n2c(=O)[nH]c3cc(-c4ccccc4CC)cnc32)ccc1OC [Ex. 81, (S)-3-(1-(6-ethoxy-5-methoxypyridin-2-yl)-2-(methylsulfonyl)ethyl)-6-(2-ethylphenyl)-1H-imidazo[4,5-b]pyridin-2(3H)-one]
+: PDE4 A1 inhibitory effect at 20 nM (PDE4A1A) | PDE4 B1 inhibitory effect at 20 nM (PDE4B1) | PDE4 D2 inhibitory effect at 20 nM (PDE4D2)

CCOc1nc([C@@H](CS(C)(=O)=O)n2c(=O)n(C)c3cc(-c4ccccc4CC)cnc32)ccc1OC [Ex. 82, (S)-3-(1-(6-ethoxy-5-methoxypyridin-2-yl)-2-(methylsulfonyl)ethyl)-6-(2-ethylphenyl)-1-methyl-1H-imidazo[4,5-b]pyridin-2(3H)-one]
+: PDE4 A1 inhibitory effect at 20 nM (PDE4A1A) | PDE4 B1 inhibitory effect at 20 nM (PDE4B1) | PDE4 D2 inhibitory effect at 20 nM (PDE4D2)

CCOc1nc([C@@H](CS(C)(=O)=O)n2c(=O)[nH]c3cc(-c4ccccc4OC)cnc32)ccc1OC [Ex. 83, (S)-3-(1-(6-ethoxy-5-methoxypyridin-2-yl)-2-(methylsulfonyl)ethyl)-6-(2-methoxyphenyl)-1H-imidazo[4,5-b]pyridin-2(3H)-one]
+: PDE4 A1 inhibitory effect at 20 nM (PDE4A1A) | PDE4 B1 inhibitory effect at 20 nM (PDE4B1) | PDE4 D2 inhibitory effect at 20 nM (PDE4D2)

CCOc1nc([C@@H](CS(C)(=O)=O)n2c(=O)n(C)c3cc(-c4ccccc4OC)cnc32)ccc1OC [Ex. 84, (S)-3-(1-(6-ethoxy-5-methoxypyridin-2-yl)-2-(methylsulfonyl)ethyl)-6-(2-methoxyphenyl)-1-methyl-1H-imidazo[4,5-b]pyridin-2(3H)-one]
+: PDE4 A1 inhibitory effect at 20 nM (PDE4A1A) | PDE4 B1 inhibitory effect at 20 nM (PDE4B1) | PDE4 D2 inhibitory effect at 20 nM (PDE4D2)

CCOc1nc([C@@H](CS(C)(=O)=O)n2c(=O)[nH]c3cc(-c4ccccc4C(F)(F)F)cnc32)ccc1OC [Ex. 85, (S)-3-(1-(6-ethoxy-5-methoxypyridin-2-yl)-2-(methylsulfonyl)ethyl)-6-(2-(trifluoromethyl)phenyl)-1H-imidazo[4,5-b]pyridin-2(3H)-one]
+: PDE4 A1 inhibitory effect at 20 nM (PDE4A1A) | PDE4 B1 inhibitory effect at 20 nM (PDE4B1) | PDE4 D2 inhibitory effect at 20 nM (PDE4D2)

CCOc1nc([C@@H](CS(C)(=O)=O)n2c(=O)n(C)c3cc(-c4ccccc4C(F)(F)F)cnc32)ccc1OC [Ex. 86, (S)-3-(1-(6-ethoxy-5-methoxypyridin-2-yl)-2-(methylsulfonyl)ethyl)-6-(2-(trifluoromethyl)phenyl)-1-methyl-1H-imidazo[4,5-b]pyridin-2(3H)-one]
+: PDE4 A1 inhibitory effect at 20 nM (PDE4A1A) | PDE4 B1 inhibitory effect at 20 nM (PDE4B1) | PDE4 D2 inhibitory effect at 20 nM (PDE4D2)

CCOc1nc([C@@H](CS(C)(=O)=O)n2c(=O)[nH]c3cc(-c4ccccc4C4CC4)cnc32)ccc1OC [Ex. 87, (S)-6-(2-cyclopropylphenyl)-3-(1-(6-ethoxy-5-methoxypyridin-2-yl)-2-(methylsulfonyl)ethyl)-1H-imidazo[4,5-b]pyridin-2(3H)-one]
+: PDE4 A1 inhibitory effect at 20 nM (PDE4A1A) | PDE4 B1 inhibitory effect at 20 nM (PDE4B1) | PDE4 D2 inhibitory effect at 20 nM (PDE4D2)

CCOc1nc([C@@H](CS(C)(=O)=O)n2c(=O)[nH]c3cc(-c4c(F)cccc4F)cnc32)ccc1OC [Ex. 88, (S)-6-(2,6-difluorophenyl)-3-(1-(6-ethoxy-5-methoxypyridin-2-yl)-2-(methylsulfonyl)ethyl)-1H-imidazo[4,5-b]pyridin-2(3H)-one]
+: PDE4 A1 inhibitory effect at 20 nM (PDE4A1A) | PDE4 B1 inhibitory effect at 20 nM (PDE4B1) | PDE4 D2 inhibitory effect at 20 nM (PDE4D2)
